These results are taken from patent US20170306090A1, “METHOD FOR MAKING POLYCARBONATE USING A LIQUID KETONE MIXTURE” (SABIC Global Technologies B.V., priority 2014, published 2017).

The structures appear in SMILES notation.

The nature of this series: Solubility of diphenyl carbonate in various ketones (gravimetric method).
Where [1] appears, read: Example 1, Temperature 70 °C, molar ratio of ketone to DPC 1:1.
Where [2] appears, read: Example 2, Temperature 50 °C, molar ratio of ketone to DPC 1:1.
Setting [3] is: Example 3, Temperature 50 °C, molar ratio of ketone to DPC 1.5:1.
Where [4] appears, read: Example 4, Temperature 25 °C, molar ratio of ketone to DPC 1:1.
The mark [5] stands for this setting: Example 5, Temperature 25 °C, molar ratio of ketone to DPC 1.5:1.
The mark [6] stands for this setting: Example 6, Temperature 25 °C, molar ratio of ketone to DPC 2:1.

Procedure: The solubility of diphenyl carbonate in various ketones was determined. Solubility was determined based on a gravimetric method.

In the case of `CCC(=O)CC` [Diethyl ketone, diethyl ketone], the “Solubility of diphenyl carbonate in the ketone” value is listed as “Yes” under setting [1]; “No” under setting [2]; “Yes” under setting [3]; “No” under setting [4]; “No” under setting [5]; “Yes” under setting [6].
Take `CC(=O)CC(C)C` [MIBK, methyl isobutyl ketone]: the “Solubility of diphenyl carbonate in the ketone” value reads like this: under setting [1], “Yes”; under setting [2], “No”; under setting [3], “Yes”; under setting [4], “No”; under setting [5], “No”; under setting [6], “No”.
